Reference: patent publication US10670605B2, “Cysteine reactive probes and uses thereof” (The Scripps Research Institute, priority 2015, dated 2020)

Key:
Test in all cases: Competitive isoTOP-ABPP in situ (fragment-treated cells)
Type in all cases: cell-based
[1] = molecular target: T1, cysteines in MDA-MB-231 and Ramos cells (Homo sapiens, UniProt O00244); conditions: 200 μM, insitu, 231
T1 sequence (O00244 1-68): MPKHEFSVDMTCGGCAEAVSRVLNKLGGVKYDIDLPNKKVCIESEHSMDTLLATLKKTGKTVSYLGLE

[2] = molecular target: T2, cysteines in MDA-MB-231 and Ramos cells (Homo sapiens, UniProt P24468); conditions: 200 μM, insitu, 231
T2 sequence (P24468 1-414): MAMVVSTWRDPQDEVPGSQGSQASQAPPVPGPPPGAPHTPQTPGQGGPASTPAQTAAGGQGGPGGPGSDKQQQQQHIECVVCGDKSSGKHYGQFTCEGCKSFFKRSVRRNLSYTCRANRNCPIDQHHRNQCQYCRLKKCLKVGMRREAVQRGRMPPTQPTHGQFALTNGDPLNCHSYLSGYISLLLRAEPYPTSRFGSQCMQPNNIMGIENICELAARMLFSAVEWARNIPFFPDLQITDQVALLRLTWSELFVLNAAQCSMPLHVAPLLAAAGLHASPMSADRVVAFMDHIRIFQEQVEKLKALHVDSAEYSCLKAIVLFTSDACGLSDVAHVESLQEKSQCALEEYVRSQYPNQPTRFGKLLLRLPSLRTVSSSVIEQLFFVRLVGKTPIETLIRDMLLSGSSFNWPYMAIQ

[3] = molecular target: cysteines in MDA-MB-231 and Ramos cells (Homo sapiens, UniProt Q00765); conditions: 200 μM, insitu, 231
Chain of cysteines in MDA-MB-231 and Ramos cells (Homo sapiens, UniProt Q00765) (Q00765 whole entry): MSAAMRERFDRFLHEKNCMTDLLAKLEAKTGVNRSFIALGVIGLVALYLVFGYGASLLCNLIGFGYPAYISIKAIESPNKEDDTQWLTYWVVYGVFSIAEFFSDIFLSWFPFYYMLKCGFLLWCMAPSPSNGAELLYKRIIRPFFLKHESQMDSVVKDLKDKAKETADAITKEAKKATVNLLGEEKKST

[4] = molecular target: T3, cysteines in MDA-MB-231 and Ramos cells (Homo sapiens, UniProt Q8WV74); conditions: 200 μM, insitu
T3 sequence (Q8WV74 1-236): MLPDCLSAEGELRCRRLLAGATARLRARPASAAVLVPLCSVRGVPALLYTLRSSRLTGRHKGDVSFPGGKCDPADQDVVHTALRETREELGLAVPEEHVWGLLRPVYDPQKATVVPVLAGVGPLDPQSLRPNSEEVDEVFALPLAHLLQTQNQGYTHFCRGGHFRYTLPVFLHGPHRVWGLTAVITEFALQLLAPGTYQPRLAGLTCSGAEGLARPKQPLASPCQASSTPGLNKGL

[5] = molecular target: cysteines in MDA-MB-231 and Ramos cells (Homo sapiens, UniProt P04818); conditions: 200 μM, insitu, 231
Chain of cysteines in MDA-MB-231 and Ramos cells (Homo sapiens, UniProt P04818) (P04818 whole entry): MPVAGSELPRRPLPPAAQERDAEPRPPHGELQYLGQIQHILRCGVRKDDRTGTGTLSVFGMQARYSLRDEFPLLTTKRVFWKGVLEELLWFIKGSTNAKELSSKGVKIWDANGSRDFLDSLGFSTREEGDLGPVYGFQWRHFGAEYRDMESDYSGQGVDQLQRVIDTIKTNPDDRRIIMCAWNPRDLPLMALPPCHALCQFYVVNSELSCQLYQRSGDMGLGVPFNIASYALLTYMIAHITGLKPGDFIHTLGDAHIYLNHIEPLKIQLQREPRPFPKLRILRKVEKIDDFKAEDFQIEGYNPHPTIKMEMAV

[6] = molecular target: T4, cysteines in MDA-MB-231 and Ramos cells (Homo sapiens, UniProt Q96EB1); conditions: 200 μM, insitu
T4 sequence (Q96EB1 1-424): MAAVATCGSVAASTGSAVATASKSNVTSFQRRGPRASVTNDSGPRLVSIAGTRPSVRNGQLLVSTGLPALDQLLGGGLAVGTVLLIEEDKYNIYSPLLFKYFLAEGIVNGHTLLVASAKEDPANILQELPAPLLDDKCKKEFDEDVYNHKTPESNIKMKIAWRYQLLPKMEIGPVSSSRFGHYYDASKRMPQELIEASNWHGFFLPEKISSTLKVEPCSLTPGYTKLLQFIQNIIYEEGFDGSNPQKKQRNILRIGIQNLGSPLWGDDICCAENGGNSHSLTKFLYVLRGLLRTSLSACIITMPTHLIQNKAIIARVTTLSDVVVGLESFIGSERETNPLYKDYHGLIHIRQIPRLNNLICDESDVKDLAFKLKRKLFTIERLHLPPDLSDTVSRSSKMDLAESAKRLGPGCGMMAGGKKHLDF

[7] = molecular target: cysteines in MDA-MB-231 and Ramos cells (Homo sapiens, UniProt P52948); conditions: 200 μM, insitu, 231
Chain of cysteines in MDA-MB-231 and Ramos cells (Homo sapiens, UniProt P52948) (P52948 whole entry): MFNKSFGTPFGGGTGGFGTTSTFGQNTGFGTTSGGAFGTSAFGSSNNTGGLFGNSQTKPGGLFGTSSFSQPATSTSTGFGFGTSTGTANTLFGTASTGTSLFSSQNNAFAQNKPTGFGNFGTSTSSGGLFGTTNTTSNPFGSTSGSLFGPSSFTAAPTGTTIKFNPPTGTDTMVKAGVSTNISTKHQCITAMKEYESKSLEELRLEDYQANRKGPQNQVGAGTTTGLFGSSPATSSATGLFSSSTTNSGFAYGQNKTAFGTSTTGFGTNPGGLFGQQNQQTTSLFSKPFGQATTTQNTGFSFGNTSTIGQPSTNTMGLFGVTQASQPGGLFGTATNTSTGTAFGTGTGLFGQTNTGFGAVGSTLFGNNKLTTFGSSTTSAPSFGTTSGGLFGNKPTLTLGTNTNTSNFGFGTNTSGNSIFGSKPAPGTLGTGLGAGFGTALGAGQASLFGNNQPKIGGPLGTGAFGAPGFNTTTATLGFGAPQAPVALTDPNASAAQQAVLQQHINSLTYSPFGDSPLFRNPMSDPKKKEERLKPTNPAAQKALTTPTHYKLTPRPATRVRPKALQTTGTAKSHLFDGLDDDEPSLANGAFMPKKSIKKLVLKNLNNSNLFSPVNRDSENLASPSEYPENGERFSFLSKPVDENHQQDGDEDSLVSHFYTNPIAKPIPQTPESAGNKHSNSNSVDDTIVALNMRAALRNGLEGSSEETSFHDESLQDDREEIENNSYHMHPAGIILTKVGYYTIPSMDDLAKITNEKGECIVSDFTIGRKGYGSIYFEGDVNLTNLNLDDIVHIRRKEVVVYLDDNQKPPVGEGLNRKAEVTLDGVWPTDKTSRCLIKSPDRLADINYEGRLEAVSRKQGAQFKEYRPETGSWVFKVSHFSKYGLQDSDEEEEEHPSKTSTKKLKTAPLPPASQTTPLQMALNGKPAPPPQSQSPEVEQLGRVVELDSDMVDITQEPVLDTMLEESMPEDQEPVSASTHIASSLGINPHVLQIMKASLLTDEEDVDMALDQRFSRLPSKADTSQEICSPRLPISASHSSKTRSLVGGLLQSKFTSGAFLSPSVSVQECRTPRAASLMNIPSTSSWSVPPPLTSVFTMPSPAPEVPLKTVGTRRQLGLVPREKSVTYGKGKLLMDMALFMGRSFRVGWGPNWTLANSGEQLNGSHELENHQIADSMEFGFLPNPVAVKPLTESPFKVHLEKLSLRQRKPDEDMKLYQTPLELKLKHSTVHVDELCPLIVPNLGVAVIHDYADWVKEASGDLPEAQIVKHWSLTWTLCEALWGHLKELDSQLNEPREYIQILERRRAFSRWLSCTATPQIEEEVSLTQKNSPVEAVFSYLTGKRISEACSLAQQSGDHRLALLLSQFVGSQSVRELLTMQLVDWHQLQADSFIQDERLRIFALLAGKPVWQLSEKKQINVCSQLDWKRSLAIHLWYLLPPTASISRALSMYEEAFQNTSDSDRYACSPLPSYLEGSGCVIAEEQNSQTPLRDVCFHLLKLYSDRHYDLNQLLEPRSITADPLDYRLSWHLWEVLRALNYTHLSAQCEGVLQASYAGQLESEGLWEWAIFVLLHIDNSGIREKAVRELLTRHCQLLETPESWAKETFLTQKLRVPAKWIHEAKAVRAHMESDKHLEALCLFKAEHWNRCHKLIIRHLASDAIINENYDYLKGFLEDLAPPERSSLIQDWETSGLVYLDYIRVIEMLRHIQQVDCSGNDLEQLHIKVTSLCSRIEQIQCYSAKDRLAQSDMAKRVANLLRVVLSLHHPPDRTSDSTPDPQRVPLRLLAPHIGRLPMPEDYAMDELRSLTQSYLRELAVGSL

[8] = molecular target: T5, cysteines in MDA-MB-231 and Ramos cells (Homo sapiens, UniProt Q9NX18); conditions: 200 μM, insitu, 231
T5 sequence (Q9NX18 30-166): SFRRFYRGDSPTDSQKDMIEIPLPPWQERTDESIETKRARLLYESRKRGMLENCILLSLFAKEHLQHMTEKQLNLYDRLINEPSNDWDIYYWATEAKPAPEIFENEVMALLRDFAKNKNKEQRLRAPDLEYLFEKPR

[9] = molecular target: cysteines in MDA-MB-231 and Ramos cells (Homo sapiens, UniProt P51812); conditions: 200 μM, insitu, 231
Chain of cysteines in MDA-MB-231 and Ramos cells (Homo sapiens, UniProt P51812) (P51812 whole entry): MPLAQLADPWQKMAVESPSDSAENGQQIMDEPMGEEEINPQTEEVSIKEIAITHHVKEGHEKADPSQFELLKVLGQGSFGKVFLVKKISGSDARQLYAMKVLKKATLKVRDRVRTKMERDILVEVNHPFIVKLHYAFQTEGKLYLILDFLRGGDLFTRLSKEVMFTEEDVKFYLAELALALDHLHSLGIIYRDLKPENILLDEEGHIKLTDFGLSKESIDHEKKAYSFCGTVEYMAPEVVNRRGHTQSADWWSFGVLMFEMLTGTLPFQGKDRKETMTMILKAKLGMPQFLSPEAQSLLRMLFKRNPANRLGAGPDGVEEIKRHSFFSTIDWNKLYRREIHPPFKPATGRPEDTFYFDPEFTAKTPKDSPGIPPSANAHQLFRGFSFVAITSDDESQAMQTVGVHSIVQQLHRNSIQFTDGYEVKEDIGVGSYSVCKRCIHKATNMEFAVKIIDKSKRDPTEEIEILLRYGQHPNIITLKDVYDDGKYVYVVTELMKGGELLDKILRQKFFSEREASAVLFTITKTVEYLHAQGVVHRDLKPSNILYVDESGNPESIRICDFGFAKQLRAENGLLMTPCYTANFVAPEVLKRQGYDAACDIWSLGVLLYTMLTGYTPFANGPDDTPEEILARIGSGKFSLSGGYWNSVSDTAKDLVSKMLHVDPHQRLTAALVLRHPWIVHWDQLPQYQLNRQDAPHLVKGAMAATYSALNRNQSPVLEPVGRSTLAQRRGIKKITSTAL

[10] = molecular target: T6, cysteines in MDA-MB-231 and Ramos cells (Homo sapiens, UniProt P53384); conditions: 200 μM, insitu, 231
T6 sequence (P53384 1-320): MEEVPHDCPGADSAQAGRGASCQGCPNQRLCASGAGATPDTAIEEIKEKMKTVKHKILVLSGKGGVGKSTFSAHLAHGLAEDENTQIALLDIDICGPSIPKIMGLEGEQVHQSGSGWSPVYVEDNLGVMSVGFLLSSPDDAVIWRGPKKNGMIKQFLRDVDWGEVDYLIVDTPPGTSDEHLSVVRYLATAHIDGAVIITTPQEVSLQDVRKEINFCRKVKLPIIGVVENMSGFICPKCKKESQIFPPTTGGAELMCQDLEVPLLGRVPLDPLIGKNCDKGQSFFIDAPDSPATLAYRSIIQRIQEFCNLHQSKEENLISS

[11] = molecular target: T7, cysteines in MDA-MB-231 and Ramos cells (Homo sapiens, UniProt Q6ICB0); conditions: 200 μM, insitu
T7 sequence (Q6ICB0 1-168): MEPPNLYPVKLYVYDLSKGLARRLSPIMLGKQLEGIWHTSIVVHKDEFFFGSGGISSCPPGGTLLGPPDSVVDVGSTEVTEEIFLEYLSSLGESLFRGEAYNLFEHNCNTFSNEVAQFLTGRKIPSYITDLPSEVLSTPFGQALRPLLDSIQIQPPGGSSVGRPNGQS

[12] = molecular target: T8, cysteines in MDA-MB-231 and Ramos cells (Homo sapiens, UniProt Q15013); conditions: 200 μM, insitu, 231
T8 sequence (Q15013 1-274): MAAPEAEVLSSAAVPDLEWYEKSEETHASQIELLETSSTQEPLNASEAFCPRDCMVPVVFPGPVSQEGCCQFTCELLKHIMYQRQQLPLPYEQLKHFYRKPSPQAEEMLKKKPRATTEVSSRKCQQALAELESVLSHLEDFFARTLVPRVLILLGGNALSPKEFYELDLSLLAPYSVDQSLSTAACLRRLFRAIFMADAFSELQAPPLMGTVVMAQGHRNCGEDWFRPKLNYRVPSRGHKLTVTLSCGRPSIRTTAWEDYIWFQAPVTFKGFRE

Compound | isoTOP-ABPP ratio, cysteine O00244_C12 [1] | isoTOP-ABPP ratio, cysteine P24468_C326 [2] | isoTOP-ABPP ratio Q00765_C18 [3] | isoTOP-ABPP ratio, cysteine Q96EB1_C218 [6]; 231 | isoTOP-ABPP ratio, cysteine P52948_C1312 [7] | isoTOP-ABPP ratio Q9NX18_C83 [8] | isoTOP-ABPP ratio, cysteine P51812_C436 [9] | isoTOP-ABPP ratio Q6ICB0_C108 [11]; 231 | isoTOP-ABPP ratio P04818_C199 [5] | isoTOP-ABPP ratio Q96EB1_C218 [6]; 231 | isoTOP-ABPP ratio P52948_C1312 [7] | further results
O=C(CCl)N1CCN(S(=O)(=O)c2ccccc2F)CC1 [compound 10] | 2.1 | 20.0 | 4.2 | 1.1 | 20.0 | 4.4 |  |  |  |  |  | isoTOP-ABPP ratio, cysteine Q8WV74_C207 ([4]; ramos): 20.0; isoTOP-ABPP ratio, cysteine P04818_C199 [5]: 1.5
O=C(CCl)NC(=O)NC12CC3CC(CC(C3)C1)C2 [compound 12] |  |  | 20.0 |  | 20.0 | 20.0 | 1.4 |  |  |  |  | isoTOP-ABPP ratio, cysteine P53384_C235 [10]: 0.5
O=C(CCl)NCCc1c[nH]c2ccccc12 [compound 13] | 1.5 |  | 1.2 | 1.2 | 1.2 |  | 1.0 |  |  |  |  | isoTOP-ABPP ratio Q6ICB0_C108 ([11]; ramos): 4.0; isoTOP-ABPP ratio, cysteine Q8WV74_C207 [4]; 231: 13.1; isoTOP-ABPP ratio, cysteine Q96EB1_C218 ([6]; ramos): 1.7
O=C(CCl)NC12CC3CC(CC(C3)C1)C2 [compound 21] | 0.7 | 1.1 | 0.7 | 0.7 | 1.1 | 1.3 |  | 0.6 |  |  |  | 
CC(C)CCOCCNC(=O)CCl [compound 27] |  |  | 1.1 |  |  | 1.5 |  | 1.9 | 0.5 | 0.6 | 1.3 | isoTOP-ABPP ratio O00244_C12 [1]: 0.4; isoTOP-ABPP ratio P24468_C326 [2]: 1.2; isoTOP-ABPP ratio Q8WV74_C207 [4]; 231: 2.2; isoTOP-ABPP ratio Q15013_C124 [12]: 1.0
C=CC(=O)Nc1cc(F)c(N2CCN(C(=O)OC(C)(C)C)CC2)c(F)c1 [compound 38] |  |  |  |  |  |  |  | 1.1 | 20.0 | 1.3 | 1.3 | isoTOP-ABPP ratio P53384_C235 [10]: 2.0
